# Laboratory results reported in patent US8933019B2, “Antiviral cell-penetrating peptides” (priority 2008, dated 2015).
# Bridge positions count the residues as written; N and C are the ends. Square brackets hold non-standard residues; d marks the D form. Peptide text beside a SMILES is read from it. S5 = C=CCCC[C@](C)(N)C(=O)O
# What was measured:
# HIV-1 RF = conditions: read-out: IC50 (μM ± SD), HIV-1 RF; laboratory strain, subtype B, MT-2, coreceptor X4
# Description: (§1) The inhibitory activity of NYAD-201, and related stapled peptides on infection by laboratory-adapted HIV-1 strains was determined as previously described (Jiang et al. J Exp. Med 174:1557-1563, 1991) with minor modifications. Azidothymidine (AZT) was used as a positive control in the infectivity assays. In brief, 1×10^4 MT-2 cells were infected with HIV-1 at 100 TCID50 (50% tissue culture infective dose) (0.01 MOI [multiplicity of infection]) in 200 μl RPMI 1640 medium containing 10% FBS in the presence or absence of peptides at graded concentrations overnight. The culture supernatants were then removed and fresh media containing freshly prepared test peptide were added. On the fourth day post-infection, 100 μl of culture supernatants were collected from each well, mixed with equal volume of 5% Triton X-100 and tested for p24 antigen by ELISA.
# (§2) In addition, NYAD-201, NYAD-202 and NYAD-203 were also tested using several laboratory-adapted and primary isolates in MT-2 cells and PBMC (peripheral blood mononuclear cells), respectively.
# HIV-1 SF2 = conditions: read-out: IC50 (μM ± SD), HIV-1 SF2; laboratory strain, subtype B, MT-2, coreceptor R5X4
# Description: as §1, §2
# HIV-1 89.6 = assay type: cell-based; conditions: laboratory strain, subtype B, PBMC, coreceptor R5X4; read-out: IC50 (μM ± SD), HIV-1 89.6
# Description: (§3) The inhibitory activity of peptides on infection by primary HIV-1 isolates was determined as previously described (Jiang et al., Antimicrob. Agents Chemother. 48:4349-4359, 2004). Peripheral blood mononuclear cells (PBMCs) were isolated from the blood of healthy donors at the New York Blood Center by standard density gradient centrifugation using Histopaque-1077 (Sigma-Aldrich). The cells were cultured at 37° C. for 2 hr. Nonadherent cells were collected and resuspended at 5×10^6 cells/ml RPMI-1640 medium containing 10% FBS, 5 μg/ml PHA, and 100 U/ml IL-2 (Sigma-Aldrich), followed by incubation at 37° C. for 3 days. The PHA-stimulated cells (5×10^4 cells/well) were infected with primary HIV-1 isolates at 500 TCID50 (0.01 MOI) in the absence or presence of peptide inhibitor at graded concentrations. Culture media were changed every 3 days and replaced with fresh media containing freshly prepared inhibitor. The supernatants were collected 7 days post-infection and tested for p24 antigen by ELISA (FIG. 6). The percent inhibition of p24 production, IC50 and IC90 values were calculated by the GraphPad Prism software (GraphPad Software Inc.).
# (§4) In addition, NYAD-201, NYAD-202 and NYAD-203 were also tested using several laboratory-adapted and primary isolates in MT-2 cells and PBMC (peripheral blood mononuclear cells), respectively. The inhibition of p24 production in MT-2 cells by NYAD-201 and its analogs were measured over a range of concentrations and the concentration required to inhibit 50% (IC50) of the p24 production was calculated. […] NYAD-201 and its analogs inhibited the laboratory strains with low μM potency (IC50˜2-8 μM), and both R5- and X4-tropic viruses were inhibited with similar potency.
# HIV-1 BaL = assay type: cell-based; conditions: laboratory strain, subtype B, PBMC, coreceptor R5; read-out: IC50 (μM ± SD), HIV-1 BaL
# Description: as §3, §4
# [1] = Cytotoxicity, XTT method, MT-2 cells; assay type: cell-based, human; conditions: human, read-out: CC50 (μM) ± SD, cytotoxicity in MT-2 cells
# Description: (§5) Cytotoxicity of peptides in MT-2 cells and PBMC was measured by the XTT [(sodium 3′-(1-(phenylamino)-carbonyl)-3,4-tetrazolium-bis(4-methoxy-6-nitro) bezenesulfonic acid hydrate)] method as previously described (Jiang et al., 2004). Briefly, for MT-2 cells, 100 μl of a peptide at graded concentrations was added to an equal volume of cells (1×10^5 cells/ml) in 96-well plates followed by incubation at 37° C. for 4 days, which ran parallel to the neutralization assay in MT-2 (except medium was added instead of virus). In the case of PBMC, 5×10^5 cells/ml were used and the cytotoxicity was measured after 7 days. After addition of XTT (PolySciences, Inc.), the soluble intracellular formazan was quantitated colorimetrically at 450 nm 4 hr later with a reference at 620 nm. The percent of cytotoxicity and the CC50 values were calculated as above (Table 2 and Table 3).
# MT-2 cells = test: Cytotoxicity, XTT method, MT-2 cells; assay type: cell-based, human; conditions: 4 days
# Description: as §5
# [2] = Cytotoxicity, XTT method, PBMC; assay type: cell-based; conditions: human
# Description: as §5
# HIV-1 IIIB = test: Release and infectivity of HIV-1 virus released from infected MT-2 cells after treatment; assay type: cell-based; conditions: lower dose 6.25 μg/ml, normalized for p24, TCID50
# Description: On the fourth day post-infection, the supernatants were collected and filtered with a 0.45 μm PVDF membrane. One aliquot of the supernatants from each sample was mixed 1:1 with a solution of 5% Triton X-100 for p24 quantification, and stored at 4° C., another aliquot was immediately frozen at −80° C. and used to compare the infectivity of the viral particles released by NYAD-201 and NYAD-202 treated cells to the viral particles released by untreated cells. The protein p24 was first quantified by sandwich-ELISA, then the viral samples were normalized for the p24 content and titered to calculate the TCID50. MT-2 cells were infected with a two fold dilutions of virus from NYAD-201 and NYAD-202 treated and untreated cells. […] On the fourth day post infection supernatants were collected for p24 quantification by sandwich-ELISA and the TCID50 was calculated by the Spearman-Karber statistical method. […]
# For these reasons, not only the quantity but also the quality of the viral particles released in the supernatant was evaluated. First, the p24/viral particles released in the supernatant following NYAD-201 and NYAD-202 treatment were quantified, then starting with the same amount of p24 per sample, the viruses released in the supernatant were titered. The TCID50 was calculated and expressed as percentage infectivity with respect to the untreated positive control. […]
# [3] = Solubility, observation in the Jurkat cytotoxicity test; assay type: physicochemical
# Description: Cytotoxicity was also evaluated in Jurkat cells using a Promega LDH leakage detection kit. Jurkat cells were plated at 10^4 cells/well in a volume of 200 μl. The test was performed after 30 min, 2 hr and 4 hr of exposure to the NYAD-201, NYAD-202 and NYAD-203 compounds.
compound,measurement,setting,value
"CSCC[C@@H]1NC(=O)[C@H](Cc2c[nH]c3ccccc23)NC(=O)[C@@](C)(NC(=O)[C@H](CCCCN)NC(=O)[C@@H](NC(=O)[C@H](CCC(=O)O)NC(=O)[C@H](CCC(N)=O)NC(=O)[C@H](C)N)C(C)C)CCCC=CCCC[C@@](C)(C(=O)N[C@H](C(=O)N[C@@H](CC(C)C)C(=O)N[C@@H](CC(C)C)C(=O)N[C@H](C(=O)N[C@@H](C)C(N)=O)C(C)C)[C@@H](C)O)NC(=O)[C@H]([C@@H](C)O)NC1=O [NYAD-201, AQEVKXWMTXTLLVA] (H-AQEVK[S5]WMT[S5]TLLVA-NH2; staple 6-10)",IC50,HIV-1 RF,2.84 ± 0.63 µM
same,IC50,HIV-1 SF2,5.06 ± 1.37 µM
same,IC50,HIV-1 89.6,5.21 ± 0.87 µM
same,IC50,HIV-1 BaL,4.73 ± 1.92 µM
same,CC50 at 4 days,[1],> 115 µM
same,CC50,MT-2 cells,> 115 µM
same,CC50 at 7 days,[2],> 115 µM
same,Percentage infectivity of virus produced by treated cells with respect to untreated control,HIV-1 IIIB,50%
same,Solubility,[3],not very soluble
